Numbers after ± are expanded uncertainties.
Experiment: molar heat capacity at constant pressure
Details: 101.33 kPa, Liquid
[1] = 315.15 K, Small sample (50 mg) DSC
[2] = 320.15 K, Small sample (50 mg) DSC
[3] = 323.13 K, Large sample (1 g) DSC
[4] = 325.15 K, Small sample (50 mg) DSC
[5] = 328.15 K, modulated-temperature differential scanning calorimetry MDSC
[6] = 330.15 K, Small sample (50 mg) DSC
[7] = 333.15 K, modulated-temperature differential scanning calorimetry MDSC
[8] = 335.15 K, Small sample (50 mg) DSC
[9] = 338.15 K, modulated-temperature differential scanning calorimetry MDSC
[10] = 340.15 K, Small sample (50 mg) DSC
[11] = 343.15 K, modulated-temperature differential scanning calorimetry MDSC
[12] = 345.15 K, Small sample (50 mg) DSC
[13] = 348.15 K, modulated-temperature differential scanning calorimetry MDSC
[14] = 350.15 K, Small sample (50 mg) DSC
[15] = 353.13 K, Large sample (1 g) DSC
[16] = 353.15 K, modulated-temperature differential scanning calorimetry MDSC
[17] = 355.15 K, Small sample (50 mg) DSC
[18] = 358.15 K, modulated-temperature differential scanning calorimetry MDSC
[19] = 360.15 K, Small sample (50 mg) DSC
[20] = 363.15 K, modulated-temperature differential scanning calorimetry MDSC
[21] = 365.15 K, Small sample (50 mg) DSC
[22] = 368.15 K, modulated-temperature differential scanning calorimetry MDSC
[23] = 370.15 K, Small sample (50 mg) DSC
[24] = 373.15 K, modulated-temperature differential scanning calorimetry MDSC
[25] = 375.15 K, Small sample (50 mg) DSC
[26] = 378.15 K, modulated-temperature differential scanning calorimetry MDSC
[27] = 380.15 K, Small sample (50 mg) DSC
[28] = 383.15 K, modulated-temperature differential scanning calorimetry MDSC
[29] = 385.15 K, Small sample (50 mg) DSC
[30] = 388.15 K, modulated-temperature differential scanning calorimetry MDSC
[31] = 390.15 K, Small sample (50 mg) DSC
[32] = 393.15 K, modulated-temperature differential scanning calorimetry MDSC
[33] = 395.15 K, Small sample (50 mg) DSC
[34] = 398.15 K, modulated-temperature differential scanning calorimetry MDSC
[35] = 400.15 K, Small sample (50 mg) DSC
[36] = 403.15 K, modulated-temperature differential scanning calorimetry MDSC
[37] = 405.15 K, Small sample (50 mg) DSC
[38] = 408.15 K, modulated-temperature differential scanning calorimetry MDSC
[39] = 410.15 K, Small sample (50 mg) DSC
[40] = 413.15 K, modulated-temperature differential scanning calorimetry MDSC
[41] = 415.15 K, Small sample (50 mg) DSC
[42] = 420.15 K, Small sample (50 mg) DSC
[43] = 425.15 K, Small sample (50 mg) DSC

CCCCCCCCn1cc[n+](C)c1.O=S(=O)([O-])C(F)(F)F [1-octyl-3-methylimidazolium trifluoromethanesulfonate]
molar heat capacity at constant pressure (313.17 K, Large sample (1 g) DSC): 588 ± 31 J/K/mol
molar heat capacity at constant pressure [1]: 604 ± 31 J/K/mol
molar heat capacity at constant pressure (318.14 K, Large sample (1 g) DSC): 592 ± 31 J/K/mol
molar heat capacity at constant pressure [2]: 608 ± 32 J/K/mol
molar heat capacity at constant pressure [3]: 595 ± 31 J/K/mol
molar heat capacity at constant pressure [4]: 612 ± 32 J/K/mol
molar heat capacity at constant pressure (328.13 K, Large sample (1 g) DSC): 595 ± 31 J/K/mol
molar heat capacity at constant pressure [5]: 599 ± 30 J/K/mol
molar heat capacity at constant pressure [6]: 612 ± 32 J/K/mol
molar heat capacity at constant pressure (333.14 K, Large sample (1 g) DSC): 595 ± 31 J/K/mol
molar heat capacity at constant pressure [7]: 603 ± 30 J/K/mol
molar heat capacity at constant pressure [8]: 616 ± 32 J/K/mol
molar heat capacity at constant pressure (338.14 K, Large sample (1 g) DSC): 598 ± 31 J/K/mol
molar heat capacity at constant pressure [9]: 606 ± 30 J/K/mol
molar heat capacity at constant pressure [10]: 620 ± 32 J/K/mol
molar heat capacity at constant pressure (343.14 K, Large sample (1 g) DSC): 599 ± 31 J/K/mol
molar heat capacity at constant pressure [11]: 609 ± 30 J/K/mol
molar heat capacity at constant pressure [12]: 623 ± 32 J/K/mol
molar heat capacity at constant pressure [13]: 612 ± 31 J/K/mol
molar heat capacity at constant pressure (348.17 K, Large sample (1 g) DSC): 599 ± 31 J/K/mol
molar heat capacity at constant pressure [14]: 627 ± 33 J/K/mol
molar heat capacity at constant pressure [15]: 601 ± 31 J/K/mol
molar heat capacity at constant pressure [16]: 616 ± 31 J/K/mol
molar heat capacity at constant pressure [17]: 631 ± 33 J/K/mol
molar heat capacity at constant pressure (358.15 K, Large sample (1 g) DSC): 605 ± 31 J/K/mol
molar heat capacity at constant pressure [18]: 619 ± 31 J/K/mol
molar heat capacity at constant pressure [19]: 634 ± 33 J/K/mol
molar heat capacity at constant pressure (363.15 K, Large sample (1 g) DSC): 610 ± 32 J/K/mol
molar heat capacity at constant pressure [20]: 622 ± 31 J/K/mol
molar heat capacity at constant pressure [21]: 637 ± 33 J/K/mol
molar heat capacity at constant pressure (368.15 K, Large sample (1 g) DSC): 616 ± 32 J/K/mol
molar heat capacity at constant pressure [22]: 625 ± 31 J/K/mol
molar heat capacity at constant pressure [23]: 641 ± 33 J/K/mol
molar heat capacity at constant pressure (373.14 K, Large sample (1 g) DSC): 617 ± 32 J/K/mol
molar heat capacity at constant pressure [24]: 628 ± 31 J/K/mol
molar heat capacity at constant pressure [25]: 644 ± 33 J/K/mol
molar heat capacity at constant pressure (378.12 K, Large sample (1 g) DSC): 621 ± 32 J/K/mol
molar heat capacity at constant pressure [26]: 631 ± 32 J/K/mol
molar heat capacity at constant pressure [27]: 648 ± 34 J/K/mol
molar heat capacity at constant pressure [28]: 635 ± 32 J/K/mol
molar heat capacity at constant pressure (383.16 K, Large sample (1 g) DSC): 626 ± 33 J/K/mol
molar heat capacity at constant pressure [29]: 652 ± 34 J/K/mol
molar heat capacity at constant pressure (388.15 K, Large sample (1 g) DSC): 631 ± 33 J/K/mol
molar heat capacity at constant pressure [30]: 637 ± 32 J/K/mol
molar heat capacity at constant pressure [31]: 655 ± 34 J/K/mol
molar heat capacity at constant pressure (393.13 K, Large sample (1 g) DSC): 636 ± 33 J/K/mol
molar heat capacity at constant pressure [32]: 640 ± 32 J/K/mol
molar heat capacity at constant pressure [33]: 658 ± 34 J/K/mol
molar heat capacity at constant pressure [34]: 642 ± 32 J/K/mol
molar heat capacity at constant pressure (398.17 K, Large sample (1 g) DSC): 639 ± 33 J/K/mol
molar heat capacity at constant pressure [35]: 663 ± 34 J/K/mol
molar heat capacity at constant pressure (403.14 K, Large sample (1 g) DSC): 642 ± 33 J/K/mol
molar heat capacity at constant pressure [36]: 645 ± 32 J/K/mol
molar heat capacity at constant pressure [37]: 666 ± 35 J/K/mol
molar heat capacity at constant pressure [38]: 648 ± 32 J/K/mol
molar heat capacity at constant pressure (408.18 K, Large sample (1 g) DSC): 644 ± 33 J/K/mol
molar heat capacity at constant pressure [39]: 670 ± 35 J/K/mol
molar heat capacity at constant pressure (413.15 K, Large sample (1 g) DSC): 647 ± 34 J/K/mol
molar heat capacity at constant pressure [40]: 651 ± 33 J/K/mol
molar heat capacity at constant pressure [41]: 673 ± 35 J/K/mol
molar heat capacity at constant pressure (418.18 K, Large sample (1 g) DSC): 649 ± 34 J/K/mol
molar heat capacity at constant pressure [42]: 677 ± 35 J/K/mol
molar heat capacity at constant pressure (423.14 K, Large sample (1 g) DSC): 651 ± 34 J/K/mol
molar heat capacity at constant pressure [43]: 680 ± 35 J/K/mol

CCCCCC[n+]1ccn(C)c1.O=S(=O)([N-]S(=O)(=O)C(F)(F)F)C(F)(F)F
molar heat capacity at constant pressure (318.17 K, Large sample (1 g) DSC): 668 ± 35 J/K/mol
molar heat capacity at constant pressure [2]: 672 ± 35 J/K/mol
molar heat capacity at constant pressure [3]: 672 ± 35 J/K/mol
molar heat capacity at constant pressure (323.15 K, modulated-temperature differential scanning calorimetry MDSC): 680 ± 34 J/K/mol
molar heat capacity at constant pressure [4]: 675 ± 35 J/K/mol
molar heat capacity at constant pressure (328.14 K, Large sample (1 g) DSC): 673 ± 35 J/K/mol
molar heat capacity at constant pressure [5]: 682 ± 34 J/K/mol
molar heat capacity at constant pressure [6]: 679 ± 35 J/K/mol
molar heat capacity at constant pressure [7]: 685 ± 34 J/K/mol
molar heat capacity at constant pressure (333.16 K, Large sample (1 g) DSC): 673 ± 35 J/K/mol
molar heat capacity at constant pressure [8]: 681 ± 35 J/K/mol
molar heat capacity at constant pressure [9]: 688 ± 34 J/K/mol
molar heat capacity at constant pressure (338.16 K, Large sample (1 g) DSC): 675 ± 35 J/K/mol
molar heat capacity at constant pressure [10]: 684 ± 36 J/K/mol
molar heat capacity at constant pressure [11]: 689 ± 34 J/K/mol
molar heat capacity at constant pressure (343.17 K, Large sample (1 g) DSC): 676 ± 35 J/K/mol
molar heat capacity at constant pressure [12]: 686 ± 36 J/K/mol
molar heat capacity at constant pressure [13]: 693 ± 35 J/K/mol
molar heat capacity at constant pressure (348.18 K, Large sample (1 g) DSC): 677 ± 35 J/K/mol
molar heat capacity at constant pressure [14]: 688 ± 36 J/K/mol
molar heat capacity at constant pressure [15]: 680 ± 35 J/K/mol
molar heat capacity at constant pressure [16]: 695 ± 35 J/K/mol
molar heat capacity at constant pressure [17]: 691 ± 36 J/K/mol
molar heat capacity at constant pressure (358.12 K, Large sample (1 g) DSC): 682 ± 35 J/K/mol
molar heat capacity at constant pressure [18]: 698 ± 35 J/K/mol
molar heat capacity at constant pressure [19]: 693 ± 36 J/K/mol
molar heat capacity at constant pressure [20]: 701 ± 35 J/K/mol
molar heat capacity at constant pressure (363.16 K, Large sample (1 g) DSC): 686 ± 36 J/K/mol
molar heat capacity at constant pressure [21]: 696 ± 36 J/K/mol
molar heat capacity at constant pressure [22]: 705 ± 35 J/K/mol
molar heat capacity at constant pressure (368.18 K, Large sample (1 g) DSC): 689 ± 36 J/K/mol
molar heat capacity at constant pressure [23]: 700 ± 36 J/K/mol
molar heat capacity at constant pressure (373.13 K, Large sample (1 g) DSC): 691 ± 36 J/K/mol
molar heat capacity at constant pressure [24]: 706 ± 35 J/K/mol
molar heat capacity at constant pressure [25]: 703 ± 37 J/K/mol
molar heat capacity at constant pressure (378.13 K, Large sample (1 g) DSC): 694 ± 36 J/K/mol
molar heat capacity at constant pressure [26]: 709 ± 35 J/K/mol
molar heat capacity at constant pressure [27]: 706 ± 37 J/K/mol
molar heat capacity at constant pressure [28]: 711 ± 36 J/K/mol
molar heat capacity at constant pressure (383.17 K, Large sample (1 g) DSC): 697 ± 36 J/K/mol
molar heat capacity at constant pressure [29]: 709 ± 37 J/K/mol
molar heat capacity at constant pressure [30]: 714 ± 36 J/K/mol
molar heat capacity at constant pressure (388.16 K, Large sample (1 g) DSC): 698 ± 36 J/K/mol
molar heat capacity at constant pressure [31]: 713 ± 37 J/K/mol
molar heat capacity at constant pressure (393.14 K, Large sample (1 g) DSC): 703 ± 37 J/K/mol
molar heat capacity at constant pressure [32]: 716 ± 36 J/K/mol
molar heat capacity at constant pressure [33]: 716 ± 37 J/K/mol
molar heat capacity at constant pressure [34]: 718 ± 36 J/K/mol
molar heat capacity at constant pressure (398.18 K, Large sample (1 g) DSC): 706 ± 37 J/K/mol
molar heat capacity at constant pressure [35]: 720 ± 37 J/K/mol
molar heat capacity at constant pressure [36]: 720 ± 36 J/K/mol
molar heat capacity at constant pressure (403.16 K, Large sample (1 g) DSC): 709 ± 37 J/K/mol
molar heat capacity at constant pressure [37]: 725 ± 38 J/K/mol
molar heat capacity at constant pressure (408.13 K, Large sample (1 g) DSC): 712 ± 37 J/K/mol
molar heat capacity at constant pressure [38]: 723 ± 36 J/K/mol
molar heat capacity at constant pressure [39]: 728 ± 38 J/K/mol
molar heat capacity at constant pressure [40]: 723 ± 36 J/K/mol
molar heat capacity at constant pressure (413.16 K, Large sample (1 g) DSC): 716 ± 37 J/K/mol
molar heat capacity at constant pressure [41]: 732 ± 38 J/K/mol
molar heat capacity at constant pressure (418.13 K, Large sample (1 g) DSC): 719 ± 37 J/K/mol
molar heat capacity at constant pressure [42]: 736 ± 38 J/K/mol
molar heat capacity at constant pressure [43]: 739 ± 38 J/K/mol

c1ccccc1 [benzene]
molar heat capacity at constant pressure (295.15 K, Small sample (50 mg) DSC): 134.8 ± 7 J/K/mol
molar heat capacity at constant pressure (300.15 K, Small sample (50 mg) DSC): 135.4 ± 7 J/K/mol
molar heat capacity at constant pressure (305.15 K, Small sample (50 mg) DSC): 136.5 ± 7.1 J/K/mol
molar heat capacity at constant pressure (310.15 K, Small sample (50 mg) DSC): 137.9 ± 7.2 J/K/mol
molar heat capacity at constant pressure [1]: 139.2 ± 7.2 J/K/mol
molar heat capacity at constant pressure [2]: 140.85 ± 7.3 J/K/mol
molar heat capacity at constant pressure [4]: 142.5 ± 7.4 J/K/mol
molar heat capacity at constant pressure [6]: 144.15 ± 7.5 J/K/mol
molar heat capacity at constant pressure [8]: 145.8 ± 7.6 J/K/mol
molar heat capacity at constant pressure [10]: 147.55 ± 7.7 J/K/mol
molar heat capacity at constant pressure [12]: 149.3 ± 7.8 J/K/mol
molar heat capacity at constant pressure [14]: 151.2 ± 7.9 J/K/mol
